Reference: patent US20230130513A1, “Magnetic-Responsive Photosensitizer Nanoplatform and Uses Thereof” (University of Maryland, Baltimore, priority 2021, published 2023)

How the values were obtained:
[1] = Absorbance change over time (UV-visible spectrometry); type: physicochemical
Procedure: (§1) Three microemulsions were selected for further investigations (1, 2.5, and 5 wt. %). Microemulsions were tested for thermodynamic stability via centrifugation stress at 5,000 rpm for 2 h at 4° C., and freeze-thaw stress consisting of three complete cycles. Each cycle consisted of placing the microemulsion for 24 h at −20° C. followed by another 24 h at 4° C. […] For long-term stability, microemulsions were kept in the dark at room temperature and then examined at 1, 3, and 6 months for physical changes or phase separation (21,22). The pH of the synthesized microemulsions was tested using a digital pH meter (accuracy±5%; Accumet XL25, Thermo Fisher Scientific, Waltham, Mass., USA). Before the pH measurement, the pH meter was calibrated using commercial standard buffer solutions of pH 4, pH 7, and pH 10 at room temperature. For the absorbance evaluation, the upper third of the synthesized microemulsions was investigated over time using ultraviolet-visible optical absorption spectrometry (SpectraMax M5, Molecular Devices, Sunnyvale, Calif., USA). […] The density of each microemulsion was calculated following the equation: […]

[2] = tested on: Human gingival fibroblasts; experiment: Live/dead assay of fibroblast cells; type: cell-based; conditions: one day incubation; microemulsions 1:1 with medium
Procedure: Human gingival fibroblasts (HGF, ScienCell, San Diego, Calif., USA) were cultured using fibroblast medium (FM) supplemented with 2% fetal bovine serum, 1% fibroblast growth supplement, 100 IU/mL penicillin, and 100 IU/mL streptomycin (18 76). When the viability of the cells was above 90%, the cells were seeded in the wells of a 96-well plate (5,000 cells per well) and incubated for 24 h. In the following day, the medium was removed, and different concentrations of superparamagnetic iron(II) oxide nanoparticles (0.25, 0.5, 1, 1.5, 2, 2.5, and 5 wt. %) nanoparticles with and without 100 μg/mL of TBO photosensitizer were dissolved in the fibroblast medium and incubated in contact with the cells for 24 h. The synthesized microemulsions containing the different concentrations of superparamagnetic iron(II) oxide nanoparticles (0.25, 0.5, 1, 1.5, 2, 2.5, and 5 wt. %) were also tested. All the microemulsions were diluted with the fibroblast medium at a 1:1 ratio. After 24 h of incubation at 37° C. with 5% CO2, the cells were washed with phosphate-buffered saline (PBS), and cell counting Kit-8 (CCK-8, Dojindo, Rockville, Md., USA) was used to evaluate the cell viability. The absorbance was read at 450 nm using a spectrophotometer (SpectraMax M5, Molecular Devices, Sunnyvale, Calif., USA). […]

[3] = tested on: saliva-derived multispecies biofilms; experiment: Photodynamic treatment against saliva-derived biofilms (CFU); type: cell-based; conditions: 7-day biofilm on dentin slabs, aPDT, no magnetic field, vs control
Procedure: Photodynamic Treatment with MagTBO Against Saliva-Derived Biofilms
Saliva samples were collected from ten healthy individuals with no active carious lesions or history of antibiotics in the last three months. The participants were instructed not to brush their teeth 24 h and not eat or drink two h before the collection. The collected saliva samples were mixed to create a homogenous and complex bacterial composition. The use of saliva as inoculum was approved by the University of Maryland Baltimore Institutional Review Board (HP-00050407). The collected saliva was mixed with glycerol (70:30) and stored at −80° C. This model was used in previous studies to form thick and mature multispecies biofilm (24-26).
Dentin slabs (6×6×1 mm) were used as substrates to grow the biofilm (FIG. 8A). The slabs were prepared from radicular dentin of extracted teeth using a diamond saw with water as coolant (Isomet, Buehler, Lake Bluff, Ill., USA). The collection and the use of extracted teeth were approved by the University of Maryland Baltimore Institutional Review Board. […] The microhardness of the slabs was measured via Vicker's indentation (HMV II, Shimadzu Corporation, Kyoto, Japan) by calculating the average of five different indentations (25 g load for 10 s) per slab (27). […]

S. mutans UA159 biofilms = experiment: Photodynamic treatment against Streptococcus mutans biofilms (CFU); type: cell-based; conditions: for antibacterial effect of core components on S. mutans biofilm: components alone, diluted to their concentration in the microemulsion (FIG. 5A)
Procedure: Photodynamic Treatment Via MagTBO Against Streptococcus mutans Biofilms S. mutans UA159 obtained from the American Type Culture Collection (ATCC, Manassas, Va., USA) were grown overnight using brain heart infusion (BHI) broth (Sigma-Aldrich, St. Louis, Mo., USA) at 37° C. and 5% CO2 incubator. The optical density of the S. mutans was modified to 1×10^8 colony-forming units (CFU)/mL (OD600=0.9) and diluted 1:20 with BHI broth supplemented with 2% of sucrose (12). 200 μL of the diluted overnight culture was placed inside the wells of a black 96-well plate for 24 h. The media was changed after 24 h and 48 h of biofilm growth was continued. The biofilm was washed with 0.9% saline and irradiated with 100 μg/mL of TBO and MagTBO microemulsions containing 1, 2.5, and 5% of SPIONs with and without magnetic field (neodymium magnet, 0.4 Tesla; pull force=601b5). The TBO or the microemulsions were left for 1 min and then irradiated for 5 minutes to deliver an energy density of 180 J/cm^2 and light intensity of 180 mW. The magnetic field was applied at a 10 mm distance below the biofilm during the entire period of the incubation and irradiation times (FIG. 1C). Untreated wells and wells treated with glycerol, essential oil, and polysorbate 20 were used as controls. After each treatment, the biofilms were washed by placing 200 μL of 0.9% saline inside the well, and then, the 0.9% saline was gently aspirated. Next, another 200 μL of saline was placed inside the well, and the biofilm was gently scraped to remove the biofilm cells (23). Then, the biofilm cells were resuspended with the saline to perform serial dilutions (1:10, 1:100, 1:1000, 1:10 000, and 1:100 000) using BHI agar. The BHI agar plates were incubated for 48 h at 37° C. in a 5% CO2 incubator and then counted using a colony counter. Considering the dilution factor, the CFUs/mL were calculated and estimated to measure the number of colonies per milliliter. Two wells were randomly selected for Live/Dead staining of the biofilms to be washed with 0.9% saline and then stained with the BacLight live/dead kit (Molecular Probes, Eugene, Oreg.).

S. mutans biofilms = experiment: Live/Dead staining of S. mutans biofilms; type: cell-based, Streptococcus mutans; conditions: aPDT, no magnetic field
Procedure: After each treatment, the biofilms were washed by placing 200 μL of 0.9% saline inside the well, and then, the 0.9% saline was gently aspirated. Next, another 200 μL of saline was placed inside the well, and the biofilm was gently scraped to remove the biofilm cells (23). Then, the biofilm cells were resuspended with the saline to perform serial dilutions (1:10, 1:100, 1:1000, 1:10 000, and 1:100 000) using BHI agar. The BHI agar plates were incubated for 48 h at 37° C. in a 5% CO2 incubator and then counted using a colony counter. Considering the dilution factor, the CFUs/mL were calculated and estimated to measure the number of colonies per milliliter. Two wells were randomly selected for Live/Dead staining of the biofilms to be washed with 0.9% saline and then stained with the BacLight live/dead kit (Molecular Probes, Eugene, Oreg.).

pH measurement = type: physicochemical; conditions: room temperature
Procedure: as §1

Density of microemulsion = type: physicochemical
[4] = tested on: mouse monocyte-macrophage cells; conditions: cited from earlier work
[5] = tested on: Human gingival fibroblasts
Procedure: Human gingival fibroblasts (HGF, ScienCell, San Diego, Calif., USA) were cultured using fibroblast medium (FM) supplemented with 2% fetal bovine serum, 1% fibroblast growth supplement, 100 IU/mL penicillin, and 100 IU/mL streptomycin (18 76). When the viability of the cells was above 90%, the cells were seeded in the wells of a 96-well plate (5,000 cells per well) and incubated for 24 h. In the following day, the medium was removed, and different concentrations of superparamagnetic iron(II) oxide nanoparticles (0.25, 0.5, 1, 1.5, 2, 2.5, and 5 wt. %) nanoparticles with and without 100 μg/mL of TBO photosensitizer were dissolved in the fibroblast medium and incubated in contact with the cells for 24 h. The synthesized microemulsions containing the different concentrations of superparamagnetic iron(II) oxide nanoparticles (0.25, 0.5, 1, 1.5, 2, 2.5, and 5 wt. %) were also tested. All the microemulsions were diluted with the fibroblast medium at a 1:1 ratio. After 24 h of incubation at 37° C. with 5% CO2, the cells were washed with phosphate-buffered saline (PBS), and cell counting Kit-8 (CCK-8, Dojindo, Rockville, Md., USA) was used to evaluate the cell viability. The absorbance was read at 450 nm using a spectrophotometer (SpectraMax M5, Molecular Devices, Sunnyvale, Calif., USA). For the live/dead assay, the fibroblast cells were seeded in the wells of a 24-well plate (40,000 cells per well). The medium was changed daily to allow the viability to be above 90%. Microemulsions containing 5 and 2.5% were added to a fresh culture medium at the ratio of 1:1 and incubated with the cells for one day. Wells treated with TBO alone or with no treatment were used as controls. After one day of incubation, the old medium was removed, cells were washed with PBS, and LIVE/DEAD™ Cell Imaging Kit (Invitrogen, Frederick, Md., USA) was used to stain the cells. The cells were visualized using an inverted epifluorescence microscope (Eclipse TE2000-S, Nikon, Melville, N.Y., USA).

Row | Compound | Absorbance change (%) ([1]; 1-Month) | Absorbance change (%) ([1]; 3-Month) | Absorbance change (%) ([1]; 6-Month) | viable cells in live/dead images [2] | reduction of multispecies biofilm CFU (total microorganisms, total streptococci, mutans streptococci, total lactobacilli) [3] | reduction against the S. mutans biofilm (CFU) (S. mutans UA159 biofilms; aPDT with light activation 180 J/cm2, no magnetic field, vs control (FIG. 5C)) [log] | antibacterial effect on S. mutans biofilm (S. mutans UA159 biofilms; incubated for 5 min without light activation (FIG. 5B)) | viable microorganisms in live/dead images (S. mutans biofilms) | pH Measurement (pH measurement) | Density (Density of microemulsion) [g/mL] | toxicity against macrophage cells ([4]; 100 μg/mL TBO, previous report (12)) | cytotoxicity against macrophage cell line ([4]; concentrations higher than 100 μg/mL, reported (12)) | percentage of fibroblast viability ([5]; TBO alone, 100 μg/mL, 24 h) [%] | cytotoxicity against fibroblasts (in words) ([5]; compared to the control) | antibacterial effect of core components on S. mutans biofilm (S. mutans UA159 biofilms) | cytotoxicity of the microemulsion components (in words) ([5]; added to fibroblast media in a ratio similar to their proportion in the microemulsion)
1 | Cc1cc2nc3ccc(N(C)C)cc3[s+]c2cc1N.[Cl-] [TBO, toluidine blue O] | No change | No change | No change | significantly reduced viability | around 1 log | 3 | No antibacterial effect | significant reduction in the viable microorganisms | 3.19 ± 0.05 | 1 | did not induce significant toxicity | critical cytotoxicity | 33.4 | significant toxicity | – | –
2 | OCC(O)CO [glycerol] | – | – | – | – | – | – | – | – | – | – | – | – | – | – | None of the components were associated with any antibacterial effect | –
3 | polysorbate 20 | – | – | – | – | – | – | – | – | – | – | – | – | – | – | None of the components were associated with any antibacterial effect | significant cytotoxicity
